Assay results reported in patent US20230256110A1, “COMBINATION OF ANTIBODY-DRUG CONJUGATE AND ATM INHIBITOR” (AstraZeneca UK Limited, priority 2020, published 2023).
Entries after “also recorded” stand apart in the source; their conditions may differ. Counter-ions that a name gives are not always drawn.

Legend:
SK-OV-3 cell line = test: Growth inhibition by total cell (nuclear) count, 96-well imaging; format: cell-based; conditions: Homo sapiens; monotherapy; SK-OV-3, ovarian, HER2 Moderate; 4 to 8 days
Description: (§1) Cells grown in their respective conditions were plated in 96-well plates at optimal density to allow linear proliferation for the duration of the assay (4 to 8 days; duration of treatment is dependent on the growth rate of each cell line). Immediately after plating, the cells were dosed with the indicated compounds for a total volume of 200 μL/well and placed in the incubator. Combinations were conducted as a 6×8 concentration response matrix for each combination. At the endpoint, the cells were fixed in 2% PFA for 20 minutes at room temperature. In order to obtain the number of cells at the start of treatment, one additional plate was used for each experiment and fixed after cells attached. The cells were then permeabilised in 0.5% Triton-X100 in PBS for 10 minutes. After a PBS wash, the cells were blocked in 5% FBS in PBS 1 h at RT and incubated with primary antibodies in 5% FBS+0.05% triton overnight at 4° C. After 3 washes in PBS cells were incubated with secondary antibodies in 5% FBS+0.05% triton with Hoechst33258 for 1 h at room temperature. After 3 washes in PBS, the cells were scanned with a Cellinsight instrument with a 10×objective and 9 fields/well. Images were analysed using Columbus for cell count based on nuclear Hoechst staining and nuclear intensity of other biomarkers investigated. The total cell count/well was used to calculate the relative growth in each well compared to solvent control. […] The mean/well of the sum of the nuclear intensity of the IF biomarkers was also expressed relative to solvent control.

JIMT-1 cell line = test: as above; format: cell-based; conditions: Homo sapiens; monotherapy; JIMT-1, breast, HER2 Expressed; 4 to 8 days
Description: as §1

KPL4 cell line [1] = test: as above; format: cell-based; conditions: monotherapy; KPL4, breast, HER2 High; 4 to 8 days
Description: as §1

NCI-N87 cell line [2] = test: as above; format: cell-based; conditions: Homo sapiens; monotherapy; NCI-N87, gastric, HER2 High; 4 to 8 days
Description: as §1

MDA-MB-468 cell line [3] = test: as above; format: cell-based; conditions: Homo sapiens; monotherapy; MDA-MB-468, breast, HER2 Low; 4 to 8 days
Description: as §1

[4] = test system: NCI-N87 tumours implanted subcutaneously; test: NCI-N87 xenograft antitumor test in vivo; design: species or system Female Nude mice; conditions: AZD1390 10 mg/kg PO QD × 28; day 40 post treatment
ATM signaling = test: Inhibition of ATM signaling, antibody blots of whole-cell extracts; format: cell-based
Description: Gastric cancer NCI-N87 and breast carcinoma KPL4 cell lines were cultured in RPMI 1640 supplemented with 10% FCS in a humidified incubator at 37° C. with 5% CO2. Cells were plated in 6-well plates at optimal density to allow linear proliferation for the duration of the assay. […] 7 h, 24 h or 48 h after dosing, whole-cell extracts were obtained by lysis in 50 mM Tris-HCl pH 7.5, 2% SDS containing protease and phosphatase inhibitors. Lysates were boiled for 5 minutes at 95° C. Protein concentration was measured using a Nanodrop at […] and 50 μg of lysate were loaded in 4-12% Bis Tris gels. Proteins were transferred using iblot2. Primary antibodies (see Table 7) were incubated overnight at 4° C. in 3% milk TBS-tween 0.05% and HRP-conjugated secondary antibodies for 1 h at room temperature. Blots were imaged using a G-box.

T47D cell line = test: High-throughput combination screen, 7-day cell titer-glo cell viability assay; format: cell-based; conditions: within the selected concentration range
Excerpt: (§2) In addition, trastuzumab and exatecan (DNA topoisomerase I inhibitor) were also screened in parallel with AZD1390.
(§3) • Loewe Dose Additivity predicts the expected response if the two compounds act on the same molecular target by means of the same mechanism. It calculates additivity based on the assumption of zero interaction between the compounds and it is independent from the nature of the dose-response relationship. • HSA (Highest Single Agent) [Berenbaum 1989] quantifies the higher of the two single compound effects at their corresponding concentrations. The combined effect is compared with the effect of each single agent at the concentration used in the combination. Excess over the highest single agent effect indicates cooperativity. […] The predicted values are determined by the chosen model. Differences between the predicted and observed values may indicate synergy or antagonism, and are shown in the Excess Matrix. Excess Matrix values are summarized by the combination scores Excess Volume and Synergy Score.

KPL4 cell line [5] = test: as above; format: cell-based; conditions: within the selected concentration range
Excerpt: as §2, §3

NCI-N87 cell line [6] = test: as above; format: cell-based; conditions: within the selected concentration range
Excerpt: as §2, §3

MDA-MB-468 cell line [7] = test: as above; format: cell-based; conditions: within the selected concentration range
Excerpt: as §2, §3

DU145 cell line = test: Growth inhibition by total cell (nuclear) count, 96-well imaging; format: cell-based; conditions: Homo sapiens, DU-145; monotherapy; DU145, prostate, HER2 Low; 4 to 8 days
Description: as §1

[8] = test system: DU145-SLFN11 KO (CRISPR-Cas9 gene knockout of SLFN11); test: as above; format: cell-based; conditions: monotherapy, prostate, HER2 Low, 4 to 8 days
Description: as §1

KAP1 pSer824, γH2AX = test: Immunofluorescence biomarkers of ATM activation and DNA damage in KPL4 cells; format: cell-based; conditions: high-HER2 KPL4
Description: Cells grown in their respective conditions were plated in 96-well plates at optimal density to allow linear proliferation for the duration of the assay (4 to 8 days; duration of treatment is dependent on the growth rate of each cell line). Immediately after plating, the cells were dosed with the indicated compounds for a total volume of 200 μL/well and placed in the incubator. Combinations were conducted as a 6×8 concentration response matrix for each combination. At the endpoint, the cells were fixed in 2% PFA for 20 minutes at room temperature. In order to obtain the number of cells at the start of treatment, one additional plate was used for each experiment and fixed after cells attached. The cells were then permeabilised in 0.5% Triton-X100 in PBS for 10 minutes. After a PBS wash, the cells were blocked in 5% FBS in PBS 1 h at RT and incubated with primary antibodies in 5% FBS+0.05% triton overnight at 4° C. After 3 washes in PBS cells were incubated with secondary antibodies in 5% FBS+0.05% triton with Hoechst33258 for 1 h at room temperature. After 3 washes in PBS, the cells were scanned with a Cellinsight instrument with a 10×objective and 9 fields/well. Images were analysed using Columbus for cell count based on nuclear Hoechst staining and nuclear intensity of other biomarkers investigated. […]

[9] = NCI-N87 and KPL4, AZD1390 at 100 nM combined with DS-8201 or exatecan mesylate

## CC(C)n1c(=O)n(C)c2cnc3cc(F)c(-c4ccc(OCCCN5CCCCC5)nc4)cc3c21 [AZD1390, 7-fluoro-1-isopropyl-3-methyl-8-[6-[3-(1-piperidyl)propoxy]-3-pyridyl]imidazo[4,5-c]quinolin-2-one]
SK-OV-3 cell line
  GI50: > 100 nM
JIMT-1 cell line
  GI50: > 100 nM
KPL4 cell line [1]
  GI50: > 100 nM
NCI-N87 cell line [2]
  GI50: > 100 nM
MDA-MB-468 cell line [3]
  GI50: > 100 nM
[4]
  Best response % TGI/regression: 37%
ATM signaling; [9]
  DNA damage (pRPA, gH2AX): exacerbating the DNA damage
  activation of pATM, pChk2, and pKAP1: inhibited the activation of pATM, pChk2, and pKAP1; also recorded: inhibits DS-8201-induced ATM signaling
  cell death (cCasp3): increased cell death
T47D cell line
  Single agent activity (cell viability): not active
KPL4 cell line [5]
  Single agent activity (cell viability): not active
NCI-N87 cell line [6]
  Single agent activity (cell viability): not active
MDA-MB-468 cell line [7]
  Single agent activity (cell viability): not active

## CC[C@@]1(O)C(=O)OCc2c1cc1n(c2=O)Cc2c-1nc1cc(F)c(C)c3c1c2[C@@H](N)CC3 [Exatecan mesylate, (1S,9S)-1-amino-9-ethyl-5-fluoro-1,2,3,9,12,15-hexahydro-9-hydroxy-4-methyl-10H,13H-benzo[de]pyrano[3′,4′:6,7]indolizino[1,2-b]quinolin-10,13-dione, reference compound]
DU145 cell line
  GI50: 0.564 nM
SK-OV-3 cell line
  GI50: 0.914 nM
JIMT-1 cell line
  GI50: 0.745 nM
KPL4 cell line [1]
  GI50: 1.18 nM
NCI-N87 cell line [2]
  GI50: 0.503 nM
[8]
  GI50: 0.45 nM
MDA-MB-468 cell line [3]
  GI50: 0.162 nM
ATM signaling; Her2-high NCI-N87 and KPL4, DS-8201 at 30 μg/mL or exatecan mesylate alone
  activation of the ATM pathway (pATM-S1981, pChk2-T68, pKap1-S824): induced activation of the ATM pathway
KAP1 pSer824, γH2AX
  biomarkers of ATM (KAP1 pSer824) activation and DNA strand breaks (yH2AX): induced in a concentration dependent manner
